Test results as given in ChEMBL document CHEMBL2074246, “Distinct groups of multidrug resistance modulating agents are distinguished by competition of P-glycoprotein-specific antibodies” (Biochem Biophys Res Commun, 2004).
Blank lines part the entries; values can stand above or below the compound they belong to.

How the values were obtained:
Type in all cases: functional, cell-based
[1] = target: T1, ATP-dependent translocase ABCB1 (Homo sapiens, UniProt P08183); experiment: TP_TRANSPORTER: increase in Calcein-AM intracellular accumulation (Calcein-AM: 0.5 uM, PSC-833: 8 uM) in MDR1-expressing NIH-3T3 cells; conditions: mouse, nih3t3, 8 µM
[2] = target: T1, ATP-dependent translocase ABCB1; experiment: TP_TRANSPORTER: increase in Calcein-AM intracellular accumulation (Calcein-AM: 0.5 uM, Propranolol: 500 uM) in MDR1-expressing NIH-3T3 cells; conditions: mouse, nih3t3, 500 µM
[3] = target: T1, ATP-dependent translocase ABCB1; experiment: TP_TRANSPORTER: increase in Calcein-AM intracellular accumulation (Calcein-AM: 0.5 uM, Lidocaine: 20 uM) in MDR1-expressing NIH-3T3 cells; conditions: mouse, nih3t3, 20 µM
[4] = target: T1, ATP-dependent translocase ABCB1; experiment: TP_TRANSPORTER: increase in Calcein-AM intracellular accumulation (Calcein-AM: 0.5 uM, Tetracaine: 320 uM) in MDR1-expressing NIH-3T3 cells; conditions: mouse, nih3t3, 320 µM
[5] = target: T1, ATP-dependent translocase ABCB1; experiment: TP_TRANSPORTER: increase in Calcein-AM intracellular accumulation (Calcein-AM: 0.5 uM, Prednisone: 200 uM) in MDR1-expressing NIH-3T3 cells; conditions: mouse, nih3t3, 200 µM
[6] = target: T1, ATP-dependent translocase ABCB1; experiment: TP_TRANSPORTER: increase in Calcein-AM intracellular accumulation (Calcein-AM: 0.5 uM, Genistein: 40 uM) in MDR1-expressing NIH-3T3 cells; conditions: mouse, nih3t3, 40 µM
[7] = target: T1, ATP-dependent translocase ABCB1; experiment: TP_TRANSPORTER: increase in Calcein-AM intracellular accumulation (Calcein-AM: 0.5 uM, Colchicine: 100 uM) in MDR1-expressing NIH-3T3 cells; conditions: mouse, nih3t3, 100 µM
[8] = target: T1, ATP-dependent translocase ABCB1; experiment: TP_TRANSPORTER: increase in Calcein-AM intracellular accumulation (Calcein-AM: 0.5 uM, Trimipramine: 20 uM) in MDR1-expressing NIH-3T3 cells; conditions: mouse, nih3t3, 20 µM
[9] = target: T1, ATP-dependent translocase ABCB1; experiment: TP_TRANSPORTER: increase in Calcein-AM intracellular accumulation (Calcein-AM: 0.5 uM, Benzocaine: 20 uM) in MDR1-expressing NIH-3T3 cells; conditions: mouse, nih3t3, 20 µM
[10] = target: T1, ATP-dependent translocase ABCB1; experiment: TP_TRANSPORTER: increase in Calcein-AM intracellular accumulation (Calcein-AM: 0.5 uM, Progesterone: 10 uM) in MDR1-expressing NIH-3T3 cells; conditions: mouse, nih3t3, 10 µM
[11] = target: T1, ATP-dependent translocase ABCB1; experiment: TP_TRANSPORTER: increase in Calcein-AM intracellular accumulation (Calcein-AM: 0.5uM, Nifedipine:125uM) in MDR1-expressing NIH-3T3 cells; conditions: mouse, nih3t3, 125 µM
[12] = target: T1, ATP-dependent translocase ABCB1; experiment: TP_TRANSPORTER: increase in Calcein-AM intracellular accumulation (Calcein-AM: 0.5 uM, m-Amsacrine: 5 uM) in MDR1-expressing NIH-3T3 cells; conditions: mouse, nih3t3, 5 µM
[13] = target: T1, ATP-dependent translocase ABCB1; experiment: TP_TRANSPORTER: increase in Calcein-AM intracellular accumulation (Calcein-AM: 0.5 uM, Mibefradil: 18 uM) in MDR1-expressing NIH-3T3 cells; conditions: mouse, nih3t3, 18 µM
[14] = target: T1, ATP-dependent translocase ABCB1; experiment: TP_TRANSPORTER: increase in Calcein-AM intracellular accumulation (Calcein-AM: 0.5 uM, Haloperidol: 80 uM) in MDR1-expressing NIH-3T3 cells; conditions: mouse, nih3t3, 80 µM
[15] = target: T1, ATP-dependent translocase ABCB1; experiment: TP_TRANSPORTER: increase in Calcein-AM intracellular accumulation (Calcein-AM: 0.5 uM, Ivermectin: 20 uM) in MDR1-expressing NIH-3T3 cells; conditions: mouse, nih3t3, 20 µM

T1 sequence (P08183 whole entry): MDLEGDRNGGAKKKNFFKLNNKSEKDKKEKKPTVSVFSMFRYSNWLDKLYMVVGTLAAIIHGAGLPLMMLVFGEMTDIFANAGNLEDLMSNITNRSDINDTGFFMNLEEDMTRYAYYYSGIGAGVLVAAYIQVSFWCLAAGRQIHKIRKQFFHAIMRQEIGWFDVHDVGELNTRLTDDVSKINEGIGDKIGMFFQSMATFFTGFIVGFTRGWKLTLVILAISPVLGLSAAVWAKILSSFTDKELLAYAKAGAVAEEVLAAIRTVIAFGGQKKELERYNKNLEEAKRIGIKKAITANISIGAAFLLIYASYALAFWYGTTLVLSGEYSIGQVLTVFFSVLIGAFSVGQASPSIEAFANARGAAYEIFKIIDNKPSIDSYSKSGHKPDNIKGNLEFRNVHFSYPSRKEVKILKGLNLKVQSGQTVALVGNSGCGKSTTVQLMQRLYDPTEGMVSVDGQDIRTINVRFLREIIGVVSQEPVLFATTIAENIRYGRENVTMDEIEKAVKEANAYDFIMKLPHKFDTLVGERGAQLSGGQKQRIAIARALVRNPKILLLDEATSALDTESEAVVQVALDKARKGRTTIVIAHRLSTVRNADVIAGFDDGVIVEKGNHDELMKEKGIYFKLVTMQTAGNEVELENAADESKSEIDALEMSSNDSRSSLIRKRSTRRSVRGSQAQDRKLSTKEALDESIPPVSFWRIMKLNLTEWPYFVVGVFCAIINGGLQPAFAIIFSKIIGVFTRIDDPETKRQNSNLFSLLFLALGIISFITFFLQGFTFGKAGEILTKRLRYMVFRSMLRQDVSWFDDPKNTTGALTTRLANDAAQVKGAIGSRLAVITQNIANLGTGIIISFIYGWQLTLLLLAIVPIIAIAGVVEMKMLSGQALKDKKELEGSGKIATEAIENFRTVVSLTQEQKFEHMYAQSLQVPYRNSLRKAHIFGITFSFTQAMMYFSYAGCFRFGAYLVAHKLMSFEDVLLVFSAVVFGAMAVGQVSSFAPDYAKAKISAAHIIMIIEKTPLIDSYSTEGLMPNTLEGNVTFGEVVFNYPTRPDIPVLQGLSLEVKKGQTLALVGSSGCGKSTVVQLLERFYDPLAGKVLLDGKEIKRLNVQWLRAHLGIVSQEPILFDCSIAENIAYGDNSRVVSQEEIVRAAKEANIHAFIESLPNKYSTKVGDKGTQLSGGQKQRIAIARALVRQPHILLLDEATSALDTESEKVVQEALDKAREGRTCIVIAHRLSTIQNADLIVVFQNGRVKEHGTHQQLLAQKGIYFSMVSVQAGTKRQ

Compound: CCN(CC)CC(=O)Nc1c(C)cccc1C [LIDOCAINE]
- Activity [3]: is not an inhibitor [-]

Compound: O=c1c(-c2ccc(O)cc2)coc2cc(O)cc(O)c12 [GENISTEIN]
- Activity [6]: inhibitor [+]

Compound: COc1cc2c(c(OC)c1OC)-c1ccc(OC)c(=O)cc1[C@@H](NC(C)=O)CC2 [COLCHICINE]
- Activity [7]: is not an inhibitor [-]

Compound: CCOC(=O)c1ccc(N)cc1 [BENZOCAINE]
- Activity [9]: inhibitor [+]

Compound: CC(=O)[C@H]1CC[C@H]2[C@@H]3CCC4=CC(=O)CC[C@]4(C)[C@H]3CC[C@]12C [PROGESTERONE]
- Activity [10]: inhibitor [+]

Compound: COC(=O)C1=C(C)NC(C)=C(C(=O)OC)C1c1ccccc1[N+](=O)[O-] [NIFEDIPINE]
- Activity [11]: inhibitor [+]

Compound: COc1cc(NS(C)(=O)=O)ccc1Nc1c2ccccc2nc2ccccc12 [AMSACRINE]
- Activity [12]: inhibitor [+]

Compound: O=C(CCCN1CCC(O)(c2ccc(Cl)cc2)CC1)c1ccc(F)cc1 [HALOPERIDOL]
- Activity [14]: inhibitor [+]

Compound: IVERMECTIN
- Activity [15]: inhibitor [+]

Next, values leading:

- Activity [1]: inhibitor [+]
Compound: C/C=C/C[C@@H](C)C(=O)[C@H]1C(=O)N[C@@H](C(C)C)C(=O)N(C)CC(=O)N(C)[C@@H](CC(C)C)C(=O)N[C@@H](C(C)C)C(=O)N(C)[C@@H](CC(C)C)C(=O)N[C@@H](C)C(=O)N[C@H](C)C(=O)N(C)[C@@H](CC(C)C)C(=O)N(C)[C@@H](CC(C)C)C(=O)N(C)[C@@H](C(C)C)C(=O)N1C [VALSPODAR]

- Activity [2]: inhibitor [+]
Compound: CC(C)NCC(O)COc1cccc2ccccc12 (stereo not given) [PROPRANOLOL]

- Activity [4]: inhibitor [+]
Compound: CCCCNc1ccc(C(=O)OCCN(C)C)cc1 [TETRACAINE]

- Activity [5]: inhibitor [+]
Compound: C[C@]12C=CC(=O)C=C1CC[C@@H]1[C@@H]2C(=O)C[C@@]2(C)[C@H]1CC[C@]2(O)C(=O)CO [PREDNISONE]

- Activity [8]: inhibitor [+]
Compound: CC(CN(C)C)CN1c2ccccc2CCc2ccccc21 (stereo not given) [TRIMIPRAMINE]

- Activity [13]: inhibitor [+]
Compound: COCC(=O)O[C@]1(CCN(C)CCCc2nc3ccccc3[nH]2)CCc2cc(F)ccc2[C@@H]1C(C)C [MIBEFRADIL]
